This is an account of results in patent US9670221B2, “Furopyridines as bromodomain inhibitors” (GlaxoSmithKline Intellectual Property (No.2) Limited, priority 2013, dated 2017).

Where a name gives a salt, the structure may show the parent alone.

One test deals with T1, BRD4 BD1 (Homo sapiens, UniProt O60885, Y390A).
T1 construct: BRD4 (1-477) (Y97A) and (Y390A); made in house; host or cells: E. coli (pET15b vector)
Kind of test: TR-FRET binding assay, BRD4 BD1 (mutant protein). The settings on record: BRD4 (1-477) mutant, 10 nM protein, read-out: pIC50 in the BRD4 BD1 assay (converted). In outline:
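N-His-tagged human BRD4 (1-477) carrying Y390A, so binding reflects BD1 only, at 10 nM with Alexa Fluor647 ligand at Kd in HEPES pH7.4 buffer, 0.5% DMSO, 30 min RT, then 1.5 nM Eu anti-His. TR-FRET 665/615 ratio normalized to controls; pIC50 from four-parameter fit.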
For orientation: In TR-FRET formats the signal depends on donor and acceptor labels being close together.
With `CN1CCCN(Cc2cc3c(=O)n(C)cc(-c4cccc(NCc5ccccn5)c4)c3o2)CC1` [Example 57, 5-methyl-2-((4-methyl-1,4-diazepan-1-yl)methyl)-7-(3-((pyridin-2-ylmethyl)amino)phenyl)furo[3,2-c]pyridin-4(5H)-one hydrochloride], the IC50 is ≤ 0.1 µM.
The same measure, in the same setting: next, `Cn1cc(-c2ccnc(NCc3ccccn3)c2)c2oc(CN3CCCNCC3)cc2c1=O` [Example 34, 2-((1,4-diazepan-1-yl)methyl)-5-methyl-7-(2-((pyridin-2-ylmethyl)amino)pyridine-4-yl)furo[3,2-c]pyridin-4(5H)-one hydrochloride]: ≤ 0.1 µM; `COc1ccc(-c2cn(C)c(=O)c3cc(CN4CCN(S(C)(=O)=O)C[C@H]4C)oc23)cc1OC` [Example 10, (R)-7-(3,4-dimethoxyphenyl)-5-methyl-2-((2-methyl-4-(methylsulfonyl)piperazin-1-yl)methyl)furo[3,2-c]pyridin-4(5H)-one]: ≤ 0.1 µM; `CC(=O)Nc1cc(-c2cn(C)c(=O)c3cc(CN4CCNC(=O)CC4)oc23)ccn1` [Example 82, N-(4-(5-methyl-4-oxo-2-((5-oxo-1,4-diazepan-1-yl)methyl)-4,5-dihydrofuro[3,2-c]pyridin-7-yl)pyridin-2-yl)acetamide]: ≤ 0.1 µM.
Same read-out and setting: the figure for `CC(=O)Nc1cncc(-c2cn(C)c(=O)c3cc(CN4CCN(S(C)(=O)=O)C[C@H]4C)oc23)c1` [Example 38, (R)—N-(5-(5-methyl-2-((2-methyl-4-(methylsulfonyl)piperazin-1-yl)methyl)-4-oxo-4,5-dihydrofuro[3,2-c]pyridin-7-yl)pyridin-3-yl)acetamide] is ≤ 0.1 µM; for `CC(Oc1cncc(-c2cn(C)c(=O)c3cc(CN4CCN(S(C)(=O)=O)CC4)oc23)c1)c1ccccc1` (stereo not drawn) [Example 12, 5-methyl-2-((4-(methylsulfonyl)piperazin-1-yl)methyl)-7-(5-(1-phenylethoxy)pyridin-3-yl)furo[3,2-c]pyridin-4(5H)-one] it is ≤ 0.1 µM; for `C[C@@H]1CN(S(C)(=O)=O)CCN1Cc1cc2c(=O)n(C)cc(-c3ccncc3OC[C@H]3CCO3)c2o1` [Example 42, 5-methyl-2-(((R)-2-methyl-4-(methylsulfonyl)piperazin-1-yl)methyl)-7-(3-((R)-oxetan-2-ylmethoxy)pyridin-4-yl)furo[3,2-c]pyridin-4(5H)-one] it is ≤ 0.1 µM.
Turning to `C[C@@H]1CN(S(C)(=O)=O)CCN1Cc1cc2c(=O)n(C)cc(-c3ccncc3OCC(F)F)c2o1` [Example 74, (R)-7-(3-(2,2-difluoroethoxy)pyridin-4-yl)-5-methyl-2-((2-methyl-4-(methylsulfonyl)piperazin-1-yl)methyl)furo[3,2-c]pyridin-4(5H)-one], the IC50 was ≤ 0.1 µM.
With `CN1CCN(Cc2cc3c(=O)n(C)cc(-c4ccncc4OCC4CC4)c3o2)CC1=O` [Example 76, 7-(3-(cyclopropylmethoxy)pyridin-4-yl)-5-methyl-2-((4-methyl-3-oxopiperazin-1-yl)methyl)furo[3,2-c]pyridin-4(5H)-one hydrochloride], the IC50 is ≤ 0.1 µM.
On to `CC(c1cc2c(=O)n(C)cc(-c3ccnc(OCC4CCOCC4)c3)c2o1)N1CCN(S(C)(=O)=O)CC1` (single isomer, unassigned) [Example 21a, 5-methyl-2-(1-(4-(methylsulfonyl)piperazin-1-yl)ethyl)-7-(2-((tetrahydro-2H-pyran-4-yl)methoxy)pyridin-4-yl)furo[3,2-c]pyridin-4(5H)-one], for which the IC50 was ≤ 0.1 µM.
In the case of `COc1ccc(-c2cn(C)c(=O)c3cc(CN4CCN(S(C)(=O)=O)CC4)oc23)cc1OC` [Example 1, 7-[3,4-bis(methyloxy)phenyl]-5-methyl-2-{[4-(methylsulfonyl)-1-piperazinyl]methyl}furo[3,2-c]pyridin-4(5H)-one], the IC50 was ≤ 0.1 µM.

The next test concerns Bromodomains BRD2, BRD3, BRD4 and BRDT (BD1/BD2 single residue mutants). Briefly: Binding of the fluoroligand to mutated versus non-mutated bromodomain. Conditions: single residue mutations in the acetyl lysine binding pocket. Further details: species or system Human. How it is done: Binding was assessed using a time resolved fluorescent resonance energy transfer binding assay. This utilises a 6 His purification tag at the N-terminal of the proteins as an epitope for an anti-6 His antibody labeled with Europium chelate (PerkinElmer AD0111) allowing binding of the Europium to the proteins which acts as the donor fluorophore. A small molecule, high affinity binder of the bromodomains BRD2, BRD3, BRD4 and BRDT has been labeled with Alexa Fluor647 (Reference Compound X) and this acts as the acceptor in the FRET pair.
The binding of the compounds of formula (I) to Bromodomains BRD2, BRD3, BRD4 and BRDT was assessed using mutated proteins to detect differential binding to either Binding Domain 1 (BD1) or Binding Domain 2 (BD2) on the bromodomain. These single residue mutations in the acetyl lysine binding pocket greatly lower the affinity of the fluoroligand (Reference Compound X) for the mutated domain (>1000 fold selective for the non-mutated domain). Therefore in the final assay conditions, binding of the fluoroligand to the mutated domain cannot be detected and subsequently the assay is suitable to determine the binding of compounds to the single non-mutated bromodomain. […]
With `COc1ccc2c(c1)C(c1ccc(Cl)cc1)=N[C@@H](CC(=O)NCCCCCNC(=O)CCCCCC1(C)/C(=C/C=C/C=C/C3=[N+](CCCCS(=O)(=O)O)c4ccc(S(=O)(=O)O)cc4C3(C)C)N(CCCCS(=O)(=O)[O-])c3ccc(S(=O)(=O)O)cc31)c1nnc(C)n1-2` (stereo partly drawn) [Reference Compound X], the “selectivity of the fluoroligand for the non-mutated domain over the mutated domain” value is > 1000 fold.
